# Source: US9833433B1, “Compositions, methods of use, and methods of treatment” (priority 2013, dated 2017)
# Key:
# PGE2 [1] = assay: PGE2 assay in hippocampal tissue (enzyme immunoassay); type: in vivo, mice
# Description: PGE2 in hippocampal tissue was detected using PGE2 enzyme immunoassay kit (Cayman Chemical, Ann Arbor, Mich.) according to the procedure described by the manufacturer (Zhang and Chen, 2008).
# COX-2 [2] = assay: Hippocampal COX-2 expression in mice (immunoblot); type: in vivo
# [3] = tested on: hippocampal LTP at CA3-CA1 and perforant path synapses; assay: Hippocampal LTP (fEPSP recordings in slices, theta-burst stimulation); type: in vivo, mice
# Method: Hippocampal LTP both at CA3-CA1 and perforant path synapses were recorded in acutely hippocampal slices and induced by a theta-burst stimulation (TBS) as described previously (Hoffman et al., 2007).
# Hippocampal slices were prepared from mice as described previously (Chen et al., 2002; Chen et al., 2012; Fan et al., 2010). Briefly, after decapitation, brains were rapidly removed and placed in cold oxygenated (95% O2, 5% CO2) artificial cerebrospinal fluid (ACSF) containing: 125.0 NaCl, 2.5 KCl, 1.0 MgCl2, 25.0 NaHCO3, 1.25 NaH2PO4, 2.0 CaCl2, 25.0 glucose, 3 pyruvic acid, and 1 ascorbic acid. Slices were cut at a thickness of 350-400 μm and transferred to a holding chamber in an incubator containing ACSF at 36° C. for 0.5 to 1 hour, and maintained in an incubator containing oxygenated ACSF at room temperature (˜22-24° C.) for >1.5 h before recordings. Slices were then transferred to a recording chamber where they were continuously perfused with 95% O2, 5% CO2-saturated standard ACSF at ˜32-34° C. Individual pyramidal and dentate granule neurons were viewed with an upright microscope (Olympus BX51WI) fitted with a 60× water-immersion objective and differential interference contrast (DIC) optics.
# Field EPSP (fEPSP) recordings both at CA3-CA1 and perforant path synapses in response to stimuli at a frequency of 0.05 Hz were made using an Axoclamp-2B patch-clamp amplifier (Molecular Devices, CA) in bridge mode. Recording pipettes were pulled from borosilicate glass with a micropipette puller (Sutter Instrument), filled with artificial ACSF (2-4 MΩ). […]
# [4] = tested on: dendritic spines of CA1 pyramidal neurons; assay: Two-photon imaging of dendritic spines in CA1 pyramidal neurons; type: in vivo, mice; conditions: NS398+Δ^9-THC
# Method: Morphology of dendritic spines in hippocampal CA1 pyramidal neurons was determined in GFP-expressing transgenic mice using a two-photon laser scanning microscope as described previously (Chen et al., 2012). Shape, size, and density of spines were measured from the three-dimensional reconstructions using NeuronStudio Version 0.9.92.
# Morphology of dendritic spines in hippocampal CA1 pyramidal neurons was determined in GFP-expressing transgenic mice treated with vehicle, Δ^9-THC or NS398+Δ^9-THC using a two-photon laser scanning microscope (Chameleon hands-free ultrafast Ti: sapphire laser with an Olympus scan head) with Olympus FLUOVIEW 300 software (Chen et al., 2012). Shape (thin, mushroom, or stubby), size, density, and volume of spines were measured from the three-dimensional reconstructions (Z stacks: 1μ step for the whole cell and 0.1μ step for a segment of dendrites) using AutoQuant X2 or 3D deconvolution plugin of Image J (http://bigwww.epfl.ch/algorithms/deconvolutionlab) and NeuronStudio (for 3D reconstruction of imaged dendritic spines, Version 0.9.92; http://research.mssm.edu/cnic/tools-ns.html, CNIC, Mount Sinai School of Medicine). […] The following parameters were used in analyzing and quantifying spines using NeuronStudio: Voxel size was set as 0.029*0.029*0.3 μm. […]
# spatial memory = assay: Morris water maze test (spatial memory); type: in vivo, mice; conditions: NS398 10 mg/kg + Δ^9-THC 10 mg/kg once a day for 7 days
# Method: (§1) The classic Morris water maze and fear conditioning tests were performed to determine spatial and fear memory as described previously (Chen et al., 2012). The ‘open field’ test was conducted to detect the locomotor activity and the bar test was used to detect catalepsy (Egashira et al., 2007).
# The classic Morris water maze test was used to determine spatial memory as described previously (Chen et al., 2012). A circular water tank (diameter 120 cm and 75 cm in high) was filled with water and the water was made opaque with non-toxic white paint. A round platform (diameter 15 cm) was hidden 1 cm beneath the surface of the water at the center of a given quadrant of the water tank. COX-2 KO and WT mice received training in the Morris water maze for 5 days without any treatments (naïve). […] For each trial, the mouse was released from the wall of the tank and allowed to search, find, and stand on the platform for 10 seconds within the 60-second trial period. […] During the probe test, the platform was removed from the pool, and the task performances were recorded for 60 seconds by a video-camera and the task performances, including swimming paths, speed, and time spent in each quadrant using an EthoVision video tracking system (Noldus). The time spent in each quadrant was analyzed.
# fear memory = assay: Fear conditioning test (contextual memory); type: in vivo, mice; conditions: NS398 10 mg/kg + Δ^9-THC 10 mg/kg once a day for 7 days
# Method: as §1
# Hippocampus-dependent contextual memory was determined using a fear-conditioning working-station (Coulbourn Instruments, Allentown, Pa.) and a one-trial protocol as describe previously (Chen et al., 2006a; 2006b). Mice were individually put into the shock chamber and allowed to freely explore the environment for 150 seconds. Immediately after this, a tone at 90 dB and 2,800 Hz (CS) was delivered for 30 seconds, and at the last 2 seconds a foot shock at 0.8 mA was delivered to the mice for 2 seconds (US). After the pairing of CS/US, mice were allowed to stay in the chamber for another 30 seconds and then returned to their home cages. Then the animals started receiving vehicle, Δ^9-THC (10 mg/kg), NS398 (10 mg/kg), Δ^9-THC+NS398 once a day for 7 days. Fear memory test was conducted 24 hours after the cessation of the last injections. For contextual conditioning, mice were individually put back into the chamber where they received the shock and the freezing response was recorded for 5 minutes with a sampling method at an interval of 5 seconds. […]
# [5] = tested on: synaptic release of glutamate; assay: Miniature spontaneous EPSCs (mEPSCs) in cultured hippocampal neurons; type: cell-based; conditions: NS398 10 μM + Δ^9-THC 3 μM; 24 hrs
# GluA1, GluN2A, GluN2B = assay: Immunostaining of synaptic and extrasynaptic glutamate receptor subunits in hippocampal CA1; conditions: NS398+Δ^9-THC
# COX-2 [6] = assay: COX-2 expression in neuronal and astroglial cell-enriched cultures; type: cell-based; conditions: assayed 12 hr after treatments
# Method: Relative pure hippocampal neurons (astroglial cells<2%), mixed neurons and astroglial cells (astroglial cells ˜10%), and astroglial cell-enriched (astroglial cells>95%), and NG108-15 cell cultures were made as described previously (Sang et al, 2005; Zhang and Chen, 2008).
# Primary hippocampal neurons (astroglial cells<2%), mixed neurons and astroglial cells (astroglial cells ˜10%), astroglial cell-enriched (astroglial cells>95%) and NG108-15 cells were cultured as described previously (Sang et al, 2005; Zhang and Chen, 2008). The extent of neurons and astroglial cells in culture were controlled by different treatments, which was estimated by using immunostaining with NeuN, a neuronal marker, glial fibrillary acidic protein (GFAP), an astrocytic marker, and OX-42, a microglial marker, in conjunction with DAPI staining.
# PGE2 [7] = conditions: earlier studies (Burstein et al., 1989; Fairbairn and Pickens; Perez-Reyes et al., 1991); cited from earlier work
compound,measurement,setting,value
"CCCCCCC(C)(C)c1ccc([C@@H]2C[C@H](O)CC[C@H]2CCCO)c(O)c1 [CP55,940]",hippocampal PGE2 production after cannabinoid injection,"PGE2 [1]; 10 mg/kg, detected 4 hrs after injection",more pronounced effects on COX-2 expression and PGE2 synthesis
same,hippocampal COX-2 expression after cannabinoid injection,"COX-2 [2]; single i.p. injection, CP55,940 10 mg/kg, detected 4 hrs",more pronounced effects on COX-2 expression and PGE2 synthesis
CS(=O)(=O)Nc1ccc([N+](=O)[O-])cc1OC1CCCCC1 [NS398],effect on LPS-reduced hippocampal LTP,[3]; LPS 3 mg/kg + NS398 10 mg/kg once a day for 7 days,prevented
same,effect on Δ^9-THC-decreased hippocampal LTP,"[3]; NS398 10 mg/kg 30 min before Δ^9-THC 10 mg/kg, 7 days, CA3-CA1 and perforant path",rescued decreased hippocampal LTP
same,"effect on CP55,940-induced increase in PGE2",PGE2 [1]; NS398 10 mg/kg 30 min prior to CP 10 mg/kg,could be blocked
same,effect on Δ^9-THC-decreased dendritic spine density,[4],prevented by inhibition of COX-2
same,effect on Δ^9-THC-impaired spatial memory,spatial memory,occluded by COX-2 inhibition
same,effect on Δ^9-THC-impaired fear memory,fear memory,attenuated by COX-2 inhibition
same,effect on Δ^9-THC-enhanced synaptic release of glutamate,[5],blocked by inhibition of COX-2
same,effect on Δ^9-THC-decreased glutamate receptor expression,"GluA1, GluN2A, GluN2B",prevented by inhibition of COX-2
Cc1c(C(=O)NN2CCCCC2)nn(-c2ccc(Cl)cc2Cl)c1-c1ccc(Cl)cc1 [Rimonabant],effect on Δ^9-THC-induced increase in COX-2 in neurons and astroglial cells in culture,COX-2 [6],blocked
same,effect on Δ^9-THC-induced increase in COX-2 in the hippocampus,"COX-2 [2]; RIM 5 mg/kg 30 min prior to Δ^9-THC 10 mg/kg, detected 4 hr after Δ^9-THC",blocked
COc1ccc2c(c1)c(CC(=O)O)c(C)n2C(=O)c1ccc(Cl)cc1 [indomethacin],effect on marijuana- or Δ^9-THC-induced elevation of PGE2 in circulation and the brain,PGE2 [7],could be antagonized
